Source: ChEMBL document CHEMBL1201862, “PubChem BioAssay data set” (2004)
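Following 48 hours of exposure in 96-well plates, responses at five concentrations were used to interpolate endpoints linearly. At the GI50, growth is halved.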 Calls of active or inactive are those of the source. Cut-off read from the data, not from the text of the source: active = GI50 up to about 1.1 µM and inactive = higher.

Experiments:
Test in all cases: NCI anticancer screen, dose series, 48 h
HCT-116 = tested on: HCT-116
UACC-257 = tested on: UACC-257
SNB-75 = tested on: SNB-75
NCI-H23 = tested on: NCI-H23
MDA-N = tested on: MDA-N
CAKI-1 = tested on: CAKI-1
T47D = tested on: T47D
K562 = tested on: K562
PC-3 = tested on: PC-3
OVCAR-8 = tested on: OVCAR-8
SNB-19 = tested on: SNB-19
SK-MEL-5 = tested on: SK-MEL-5
SK-MEL-2 = tested on: SK-MEL-2
HCC 2998 = tested on: HCC 2998
MDA-MB-231 = tested on: MDA-MB-231
SF-295 = tested on: SF-295
SR = tested on: SR
A549 = tested on: A549
NCI-H226 = tested on: NCI-H226
UO-31 = tested on: UO-31

SMILES: C1CCCN(NC2=NCCO2)CC1
- GI50 (HCT-116): > 100 µM (inactive)
- GI50 (UACC-257): > 100 µM (inactive)
- GI50 (SNB-75): > 100 µM (inactive)
- GI50 (NCI-H23): > 100 µM (inactive)
- GI50 (MDA-N): > 100 µM (inactive)
- GI50 (CAKI-1): > 100 µM (inactive)
- GI50 (T47D): > 100 µM (inactive)
- GI50 (K562): > 100 µM (inactive)
- GI50 (PC-3): > 100 µM (inactive)
- GI50 (OVCAR-8): > 100 µM (inactive)
- GI50 (SNB-19): > 100 µM (inactive)
- GI50 (SK-MEL-5): > 100 µM (inactive)
- GI50 (SK-MEL-2): > 100 µM (inactive)
- GI50 (HCC 2998): > 100 µM (inactive)
- GI50 (MDA-MB-231): > 100 µM (inactive)
- GI50 (SF-295): > 100 µM (inactive)
- GI50 (SR): > 100 µM (inactive)
- GI50 (A549): > 100 µM (inactive)
- GI50 (NCI-H226): > 100 µM (inactive)
- GI50 (UO-31): > 100 µM (inactive)

SMILES: CC(C)=CCN1c2ccccc2[C@@]2(CC=C(C)C)CCN(C)[C@@H]12 [(+)-DEBROMOFLUSTRAMINE B]
- GI50 (HCT-116): 23.6 µM (inactive)
- GI50 (UACC-257): > 10 µM (inactive)
- GI50 (SNB-75): 26.1 µM (inactive)
- GI50 (NCI-H23): 40.5 µM (inactive)
- GI50 (MDA-N): 26.5 µM (inactive)
- GI50 (CAKI-1): 26.8 µM (inactive)
- GI50 (T47D): 20.7 µM (inactive)
- GI50 (K562): 19.6 µM (inactive)
- GI50 (PC-3): 27 µM (inactive)
- GI50 (OVCAR-8): 28.2 µM (inactive)
- GI50 (SNB-19): 22.3 µM (inactive)
- GI50 (SK-MEL-5): 17.6 µM (inactive)
- GI50 (SK-MEL-2): 14 µM (inactive)
- GI50 (HCC 2998): 13.7 µM (inactive)
- GI50 (MDA-MB-231): 21.4 µM (inactive)
- GI50 (SF-295): 21 µM (inactive)
- GI50 (SR): 33.4 µM (inactive)
- GI50 (A549): 36.1 µM (inactive)
- GI50 (NCI-H226): 44.2 µM (inactive)
- GI50 (UO-31): 14.8 µM (inactive)

SMILES: Cc1cc(S(=O)(=O)N/C(=N/N)NCCc2ccccc2)c(S)cc1Cl
- GI50 (HCT-116): 25.1 µM (inactive)
- GI50 (UACC-257): 44.4 µM (inactive)
- GI50 (SNB-75): 25.6 µM (inactive)
- GI50 (MDA-N): > 10 µM (inactive)
- GI50 (CAKI-1): 26.4 µM (inactive)
- GI50 (T47D): 18.1 µM (inactive)
- GI50 (K562): 30.6 µM (inactive)
- GI50 (PC-3): 30.1 µM (inactive)
- GI50 (OVCAR-8): 18.9 µM (inactive)
- GI50 (SNB-19): 18.1 µM (inactive)
- GI50 (SK-MEL-5): 19.2 µM (inactive)
- GI50 (SK-MEL-2): 38.2 µM (inactive)
- GI50 (HCC 2998): 23.2 µM (inactive)
- GI50 (MDA-MB-231): 29.6 µM (inactive)
- GI50 (SR): 29.9 µM (inactive)
- GI50 (A549): 36.1 µM (inactive)
- GI50 (NCI-H226): 25.6 µM (inactive)
- GI50 (UO-31): 27.6 µM (inactive)

SMILES: COC1=CC(=O)c2c(c(-c3csc(C)n3)cn2C)C1=O
- GI50 (HCT-116): 23.4 µM (inactive)
- GI50 (UACC-257): 5.92 µM (inactive)
- GI50 (SNB-75): 4.31 µM (inactive)
- GI50 (NCI-H23): 2.56 µM (inactive)
- GI50 (MDA-N): 14.8 µM (inactive)
- GI50 (CAKI-1): 29.3 µM (inactive)
- GI50 (T47D): 26.5 µM (inactive)
- GI50 (K562): 25.4 µM (inactive)
- GI50 (PC-3): 20.9 µM (inactive)
- GI50 (OVCAR-8): 22.6 µM (inactive)
- GI50 (SNB-19): 8.04 µM (inactive)
- GI50 (SK-MEL-5): 1.72 µM (inactive)
- GI50 (SK-MEL-2): 17.1 µM (inactive)
- GI50 (HCC 2998): 10.9 µM (inactive)
- GI50 (MDA-MB-231): 29.4 µM (inactive)
- GI50 (SF-295): 6.75 µM (inactive)
- GI50 (SR): 23.3 µM (inactive)
- GI50 (A549): 2.15 µM (inactive)
- GI50 (NCI-H226): 33.6 µM (inactive)
- GI50 (UO-31): 27 µM (inactive)

SMILES: CCCCCCCCCCCCCC[S+](C)C
- GI50 (HCT-116): 2.51 µM (inactive)
- GI50 (UACC-257): 2.45 µM (inactive)
- GI50 (SNB-75): 1.58 µM (inactive)
- GI50 (NCI-H23): 1.5 µM (inactive)
- GI50 (MDA-N): 2.08 µM (inactive)
- GI50 (CAKI-1): 2.61 µM (inactive)
- GI50 (T47D): 2.1 µM (inactive)
- GI50 (K562): 1.4 µM (inactive)
- GI50 (PC-3): 1.24 µM (inactive)
- GI50 (OVCAR-8): 1.77 µM (inactive)
- GI50 (SNB-19): 1.4 µM (inactive)
- GI50 (SK-MEL-5): 1.53 µM (inactive)
- GI50 (SK-MEL-2): 2.02 µM (inactive)
- GI50 (HCC 2998): 1.66 µM (inactive)
- GI50 (MDA-MB-231): 2.23 µM (inactive)
- GI50 (SF-295): 3.33 µM (inactive)
- GI50 (SR): 0.538 µM (active)
- GI50 (A549): 1.68 µM (inactive)
- GI50 (NCI-H226): 1.99 µM (inactive)
- GI50 (UO-31): 3.07 µM (inactive)

SMILES: COc1ccc(/C(Cl)=C(\CNc2ccccn2)c2ccccc2)cc1OC
- GI50 (HCT-116): > 100 µM (inactive)
- GI50 (UACC-257): > 100 µM (inactive)
- GI50 (SNB-75): > 100 µM (inactive)
- GI50 (NCI-H23): > 100 µM (inactive)
- GI50 (MDA-N): > 100 µM (inactive)
- GI50 (CAKI-1): > 100 µM (inactive)
- GI50 (T47D): > 100 µM (inactive)
- GI50 (K562): > 100 µM (inactive)
- GI50 (PC-3): > 100 µM (inactive)
- GI50 (OVCAR-8): > 100 µM (inactive)
- GI50 (SNB-19): > 100 µM (inactive)
- GI50 (SK-MEL-5): > 100 µM (inactive)
- GI50 (SK-MEL-2): > 100 µM (inactive)
- GI50 (HCC 2998): > 100 µM (inactive)
- GI50 (MDA-MB-231): > 100 µM (inactive)
- GI50 (SF-295): > 100 µM (inactive)
- GI50 (SR): > 100 µM (inactive)
- GI50 (A549): > 100 µM (inactive)
- GI50 (NCI-H226): > 100 µM (inactive)
- GI50 (UO-31): > 100 µM (inactive)

SMILES: COC(=O)c1ccccc1/C=C1\Cc2ccc3c(c2C1=O)CCC3
- GI50 (HCT-116): > 100 µM (inactive)
- GI50 (UACC-257): > 100 µM (inactive)
- GI50 (SNB-75): > 100 µM (inactive)
- GI50 (NCI-H23): > 100 µM (inactive)
- GI50 (MDA-N): > 100 µM (inactive)
- GI50 (CAKI-1): > 100 µM (inactive)
- GI50 (T47D): > 100 µM (inactive)
- GI50 (K562): > 100 µM (inactive)
- GI50 (PC-3): > 100 µM (inactive)
- GI50 (OVCAR-8): > 100 µM (inactive)
- GI50 (SK-MEL-5): > 100 µM (inactive)
- GI50 (HCC 2998): > 100 µM (inactive)
- GI50 (MDA-MB-231): > 100 µM (inactive)
- GI50 (SF-295): > 100 µM (inactive)
- GI50 (SR): > 100 µM (inactive)
- GI50 (A549): > 100 µM (inactive)
- GI50 (NCI-H226): > 100 µM (inactive)
- GI50 (UO-31): > 100 µM (inactive)
